Measurements from patent publication US8956648B2, “Calciumphosphate-based nanoparticles as carrier-systems for photodynamic therapy” (Biolitec PharmaMarketing Ltd, priority 2008, dated 2015).

Test system: human colon adenocarcinoma cell line HT29
Test: Photodynamic cell test on HT29 tumor cell line (XTT viability after laser irradiation)
Format: cell-based
Conditions: HT29 cells, 24 h incubation, 652 nm diode laser 50 J cm^−2, XTT assay
Experimental: The photosensitizing activity was determined in the human colon adenocarcinoma cell line HT29. The HT29 cell lines were grown in DMEM (cc-pro GmbH) supplemented with 10% heat-inactivated fetal calf serum (FCS, cc-pro GmbH), 1% penicillin (10000 IU) and streptomycin (10,000 μg ml^−1, cc-pro GmbH). Cells were kept as a monolayer culture in a humidified incubator (5% CO2 in air at 37° C.).
A stock solution of the nanoparticle formulation was kept in the dark at 4° C. Further dilution was performed in RPMI 1640 medium without phenol red supplemented with 10% FCS to reach a final photosensitizer concentration of 2 or 10 μM, respectively.
2-10^4 cells ml^−1 were seeded in micro plates ([…]). Cells were incubated with fresh medium (RPMI without phenol red) containing 10% FCS with 2 or 10 μM of the photosensitizer for 24 h before light exposure. Before photosensitization, cells were washed, incubated with RPMI without phenol red and 10% FCS, then irradiated at room temperature with a 652 nm diode laser (Ceralas PDT 652, biolitec AG) at a fixed fluence rate of 100 mW cm^−2 (50 J cm^−2). […]
The cell viability was assessed by the XTT assay. […]
The absorbance of the samples was measured with a spectrophotometer (Tecan Infinite 200, Tecan Group Ltd.) at a wavelength of 490 nm. In order to measure reference absorbance (to measure non-specific readings) a wavelength of 630-690 nm was used. […]

O=P(O)(O)Oc1ccc(-c2c3nc(c(-c4ccc(OP(=O)(O)O)cc4)c4ccc([nH]4)c(-c4ccc(OP(=O)(O)O)cc4)c4nc(c(-c5ccc(OP(=O)(O)O)cc5)c5ccc2[nH]5)C=C4)C=C3)cc1 [pTPPP, 5,10,15,20-tetrakis(4-phosphonooxyphenyl)porphine]
photodynamic activity: no photodynamic activity
